Consider twelve compounds from PubChem BioAssay (NCI).

Test systems include NCI-H522 lung; SF-295 CNS; UO-31 renal; HCT-116 colon; SN12C renal; LOX IMVI melanoma; A498 renal; HCT-15 colon; MOLT-4 leukemia.
What all share (experiment): DTP human tumour cell line panel, 48 h

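The compound was tested at five concentrations on cells cultured in 96-well plates, with a 48-hour exposure period. Abbreviation: GI50, concentration required for 50% inhibition of growth. At the TGI there is no net growth.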

As a reminder, the GI50 is the concentration that inhibits growth by half. For orientation: TGI means the concentration at which net growth stops. Read a low TGI as greater sensitivity of the cells. Take `FC(F)(F)c1cc(-c2nnc3n2N=C(N2CCCC2)CS3)cc(C(F)(F)F)c1`: the GI50 with NCI-H522 lung is 24 µM; with SF-295 CNS it was 19.2 µM; in the experiment with UO-31 renal, over 50 µM; with HCT-116 colon it was 7.99 µM; in the experiment on SN12C renal, over 50 µM; with LOX IMVI melanoma, over 50 µM. Further, the GI50 in the experiment on A498 renal and with HCT-15 colon was over 50 µM each time. The TGI with NCI-H522 lung, with SF-295 CNS, in the experiment on UO-31 renal, with HCT-116 colon, in the experiment on SN12C renal and with LOX IMVI melanoma was over 50 µM throughout. The TGI in the experiment with A498 renal and with HCT-15 colon was over 50 µM each time.
As to `CCOC(=O)C1=C(c2ccccc2)N(C)c2ccccc2S1`, the TGI in the experiment with NCI-H522 lung is 52.3 µM; in the experiment on MOLT-4 leukemia it was over 100 µM; in the experiment on SF-295 CNS, over 100 µM; in the experiment on UO-31 renal, 81 µM; with HCT-116 colon, 73.3 µM; in the experiment on SN12C renal, 58.2 µM. In addition, the TGI came out at 30.3 µM in the experiment with LOX IMVI melanoma and 31.3 µM in the experiment with HCT-15 colon.
For the compound `COc1ccc(-c2nc3sc(-c4ccc(Cl)cc4)cn3n2)cc1`, the GI50 in the experiment with NCI-H522 lung was 14.9 µM; with MOLT-4 leukemia, 11.3 µM; in the experiment on SF-295 CNS, 2.81 µM; in the experiment with UO-31 renal, 1.19 µM; in the experiment on HCT-116 colon, 1.21 µM; with SN12C renal it was 1.84 µM. Also, the values for the GI50 with LOX IMVI melanoma and in the experiment with HCT-15 colon were over 50 µM and 24.5 µM, respectively. Moreover, the TGI in the experiment with NCI-H522 lung was over 50 µM; in the experiment on MOLT-4 leukemia it was over 50 µM; with SF-295 CNS, 31.8 µM; in the experiment with UO-31 renal, 4.51 µM; with HCT-116 colon it was 3.48 µM; in the experiment with SN12C renal, over 50 µM. For the same compound, the TGI in the experiment on LOX IMVI melanoma and in the experiment with HCT-15 colon was over 50 µM in each case.
For `O=C(Nc1ccc(Cl)cc1Cl)C(=O)C(C(=O)c1ccc2ccccc2c1)C1OC(=O)c2ccccc21` (centres undefined), the TGI with SF-295 CNS is 19.7 µM; with UO-31 renal, 27 µM; in the experiment with HCT-116 colon, 18 µM; in the experiment with SN12C renal, 30.7 µM; with LOX IMVI melanoma, 24.9 µM; in the experiment with A498 renal it was 20.2 µM. This compound also yielded a TGI in the experiment with HCT-15 colon of 42.3 µM.
On to `CC(=O)/C(=C/n1c(=S)[nH]c2ccccc21)C(=O)Nc1ccccc1C`, for which the TGI in the experiment on MOLT-4 leukemia, in the experiment with SF-295 CNS, with UO-31 renal, with HCT-116 colon, with SN12C renal and in the experiment on LOX IMVI melanoma was over 100 µM in each case. In addition, the TGI in the experiment with A498 renal and with HCT-15 colon was over 100 µM each time.
In the case of `O=C1C=C(NCCNC(=S)Nc2ccccc2)c2nccc3c2c1nc1ccccc13`, the GI50 in the experiment with NCI-H522 lung was 46.8 µM; in the experiment on SF-295 CNS, 39.7 µM; in the experiment on UO-31 renal, over 100 µM; in the experiment with HCT-116 colon, 14 µM; in the experiment on SN12C renal, 23.5 µM; in the experiment with LOX IMVI melanoma, 31.5 µM. The GI50 was over 100 µM in the experiment with A498 renal and 34.9 µM with HCT-15 colon. Also, the TGI in the experiment with NCI-H522 lung, in the experiment with SF-295 CNS, in the experiment on UO-31 renal, in the experiment on HCT-116 colon, with SN12C renal and in the experiment on LOX IMVI melanoma was over 100 µM in each case. For the same compound, the TGI in the experiment with A498 renal and in the experiment on HCT-15 colon was over 100 µM throughout.
For the compound `CO/C(=N\N=C\c1cccc(Cl)c1)c1ccncc1`, the TGI with NCI-H522 lung, with MOLT-4 leukemia, in the experiment on SF-295 CNS, in the experiment with UO-31 renal, in the experiment on HCT-116 colon and in the experiment on SN12C renal was over 10 µM throughout. Further, the TGI in the experiment on LOX IMVI melanoma and in the experiment with HCT-15 colon was over 10 µM each time.
For `Cc1ccc(S(=O)(=O)NCCNC2=CC(=O)c3nc4ccccc4c4ccnc2c34)cc1`, the GI50 with NCI-H522 lung was 15 µM; in the experiment on SF-295 CNS it was 17.7 µM; in the experiment with UO-31 renal, 24.3 µM; in the experiment on HCT-116 colon, 26.9 µM; in the experiment with SN12C renal, 17.8 µM; in the experiment on LOX IMVI melanoma, 16.6 µM. Besides, the GI50 in the experiment with A498 renal was 24.1 µM; with HCT-15 colon it was 16.2 µM. The TGI in the experiment on NCI-H522 lung was 37.3 µM; with SF-295 CNS it was 39 µM; in the experiment with UO-31 renal, over 100 µM; in the experiment with HCT-116 colon, over 100 µM; in the experiment on SN12C renal, 39.6 µM; in the experiment on LOX IMVI melanoma, 42.4 µM. The values for the TGI with A498 renal and with HCT-15 colon were 53.1 µM and 48.1 µM, respectively.
On to `Cc1c(S(C)(=O)=O)c(-c2cc(F)cc(N3CCN(c4ccc(NS(=O)(=O)c5ccc(N[C@H](CCN6CCC(C(=O)OCCCP(=O)(O)O)CC6)CSc6ccccc6)c(S(=O)(=O)C(F)(F)F)c5)cc4)CC3)c2)c(-c2ccc(Cl)cc2)n1C(C)C`, for which the GI50 in the experiment on NCI-H522 lung, with SF-295 CNS, with UO-31 renal, with HCT-116 colon, in the experiment on SN12C renal and in the experiment on LOX IMVI melanoma was over 100 µM each time. For the same compound, the GI50 in the experiment on A498 renal and in the experiment on HCT-15 colon was over 100 µM each time. Besides, the TGI in the experiment with NCI-H522 lung, in the experiment on SF-295 CNS, with UO-31 renal, in the experiment with HCT-116 colon, in the experiment on SN12C renal and in the experiment with LOX IMVI melanoma was over 100 µM each time. Further, the TGI in the experiment on A498 renal and with HCT-15 colon was over 100 µM in each case.
Consider `CCCCS(=O)CCC(N)C(=O)O` (centres undefined), for which the TGI in the experiment on NCI-H522 lung, in the experiment with MOLT-4 leukemia, in the experiment with SF-295 CNS, in the experiment with UO-31 renal, with HCT-116 colon and in the experiment with SN12C renal was over 100 µM each time. Moreover, the TGI in the experiment with A498 renal and with HCT-15 colon was over 100 µM each time.
For the compound `COC1=CC(=O)C2C(C1=O)[C@@H]1c3ccccc3C[C@H]21` (some centres undefined), the TGI in the experiment with NCI-H522 lung, with MOLT-4 leukemia, in the experiment on SF-295 CNS, in the experiment on UO-31 renal, with LOX IMVI melanoma and with A498 renal was over 100 µM in each case. In addition, the TGI with HCT-15 colon is over 100 µM.
Turning to `Nc1nc2c(c(=O)[nH]1)NC(CO)CN2` (centres undefined), the TGI with NCI-H522 lung, in the experiment on MOLT-4 leukemia, with SF-295 CNS, in the experiment with UO-31 renal, with HCT-116 colon and with SN12C renal was over 100 µM throughout. Moreover, the TGI is 36.7 µM in the experiment on LOX IMVI melanoma and over 100 µM in the experiment with HCT-15 colon.
